Assay results as given in patent US11655254B2, “Substituted piperazines as BTK inhibitors” (HUTCHISON MEDIPHARMA LIMITED, priority 2020, dated 2023).

Experiments:
[1] = system: B cell activation in mice whole blood (BTK target); test: In vivo inhibitory effect on BTK target: anti-IgD antibody-induced B cell activation in mice whole blood after oral dosing; set-up: species or system mouse; conditions: 20 mg/kg oral gavage, single administration, 16 h
Description: Objects: B cells in mice whole blood were induced and activated by the anti-IgD antibody, and the inhibitory effect of the compound of the present invention on B cell activation in vivo was studied, so as to determine the inhibitory effect of the compound of the present invention on the BTK target in vivo.
Methods: C57BL/6 mice (female, 18-20 g, purchased from Shanghai Lingchang Biotechnology Co., Ltd.) were grouped according to Table 1.
In addition, the blood of mice in the drug-treated group was centrifuged to separate plasma for blood concentration analysis.
Calculation for Inhibition Ratio: Inhibition ratio=(percentage of B cell activation ratio in anti-IgD antibody-induced vehicle group-percentage of B cell activation ratio in drug-treated group)/(percentage of B cell activation ratio in anti-IgD antibody-induced vehicle group-percentage of B cell activation ratio in vehicle control group)×100%
All data are represented by mean±standard error. For the comparison between each drug-treated group and the anti-IgD antibody-induced vehicle group, p value was calculated by Graphpad Prism using one-way ANOVA analysis of variance and Dunnett's test, and for the comparison between each drug-treated group, p value was calculated by using unpaired t test.

[2] = Drug concentration in plasma of mice of the B cell activation study; format: in vivo; conditions: C57BL/6, plasma; mouse, 20 mg/kg oral, 16 h after administration
Description: The animals of each group were administered, then were placed in CO2 for anesthesia at designated time points, blood samples were taken from […] via retro-orbital bleeding, and heparin was used for anticoagulation; 90 μL of whole blood was taken from mice of each group, and added to a 96 well culture plate, and anti-mouse IgD antibody (BIO-RAD, Cat #MCA4693) was added to each well to a final concentration of 0.01 μg/μL (respectively for each drug-treated group and anti-IgD antibody-inducted vehicle group); in addition, 90 μL of whole blood of mice in the vehicle group was taken and added to the 96-well culture plate, and PBS (phosphate buffer, GIBCO, Cat # C20012500BT) was added to each well to a final concentration of 0.01 μg/μL (namely, the vehicle control group); Each group was mixed well and incubated in a 37° C./5% CO2 incubator for 4 hours. In addition, the blood of mice in the drug-treated group was centrifuged to separate plasma for blood concentration analysis.

[3] = molecular target: Phosphorylated BTK in Ramos cells (Homo sapiens (Human), UniProt Q06187); test: Determination of phosphorylated BTK in Ramos cells (BTK phospho-Y223 HTRF); format: cell-based; conditions: Ramos cells stimulated with immunoglobulin M 10 μg/mL and hydrogen peroxide 3.3 mM, 10 minutes
Sequence of Phosphorylated BTK in Ramos cells (Q06187 whole entry): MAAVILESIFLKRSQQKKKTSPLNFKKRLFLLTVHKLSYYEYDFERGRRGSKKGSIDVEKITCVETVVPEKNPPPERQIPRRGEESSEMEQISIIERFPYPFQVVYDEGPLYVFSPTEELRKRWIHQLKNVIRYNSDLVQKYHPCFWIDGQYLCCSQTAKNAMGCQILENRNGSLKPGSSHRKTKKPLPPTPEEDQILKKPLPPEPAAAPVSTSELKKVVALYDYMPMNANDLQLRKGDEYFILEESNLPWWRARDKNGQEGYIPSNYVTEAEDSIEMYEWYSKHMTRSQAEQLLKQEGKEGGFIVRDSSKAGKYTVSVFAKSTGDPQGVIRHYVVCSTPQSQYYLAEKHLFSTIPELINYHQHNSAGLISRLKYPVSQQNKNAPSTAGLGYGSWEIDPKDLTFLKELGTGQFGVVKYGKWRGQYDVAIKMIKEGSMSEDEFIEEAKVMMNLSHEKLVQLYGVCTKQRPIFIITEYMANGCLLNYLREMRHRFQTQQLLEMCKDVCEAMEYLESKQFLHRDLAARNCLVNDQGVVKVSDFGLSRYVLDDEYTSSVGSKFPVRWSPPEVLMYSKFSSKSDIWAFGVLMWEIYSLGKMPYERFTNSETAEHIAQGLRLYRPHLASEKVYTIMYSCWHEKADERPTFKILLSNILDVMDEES
Description: Ramos cells were starved in PRMI 1640 medium with 1% FBS for 2 hours. The starved Ramos cells were diluted with Hank's balanced salt solution to 5.0×10^6 cells/ml, seeded in a 96-well plate with 20 μL/well (1.0×10^5 cells/well), and cultured in a 5% CO2, 37° C. cell incubator. […]
The 384 well plate incubated overnight in the constant temperature incubator was taken out to detect the luminescence signal using the Envision microwell plate reader at the […]. The reading value at 665 nm/615 nm of each well multiplied by 10^4 was used as the signal value of each well.
The average signal value of the wells supplemented with the mixed solution of human immunoglobulin M (final concentration was 10 μg/mL) and hydrogen peroxide (final concentration was 3.3 mM) without the test compound was regarded as the high value, and the average signal value of the wells without immunoglobulin M stimulation and without the test compound was regarded as the low value. According to the signal value in each well, the inhibition ratio (%) of each concentration of compounds was calculated, and the 205 model in XL-Fit 5.3 software (ID Business Solutions Limited) was used to obtain an IC50 value.
The inhibition ratio is calculated as follows: inhibition ratio (%)=100%−{(treating well for the test compound−negative control treating well)/(control treating well for anti-human immunoglobulin M−negative control treating well)}×100%, wherein, […]

[4] = Stability test in liver microsomes (rat); format: in vitro ADME; conditions: rat liver microsomes 0.5 mg/mL, compound 1 μM, 37° C.
Description: The test compound stock solution was diluted with an organic solvent (usually a mixture of acetonitrile, methanol and water with various ratios, depending on the solubility of the compound, if necessary, 1 N hydrochloric acid or 1 N sodium hydroxide would be added to facilitate solubilization) to the 0.1 mM (the final concentration of the compound in the reaction system was 1 μM) and the concentration percentage of the organic solvents in the incubation system no more than 1% (wherein the percentage of DMSO was required to be no more than 0.1%). An appropriate amount of 100 mM NADP, 500 mM G-6-P and 100 Unit/mL G-6-PDH were mixed and diluted with ultrapure water (the final system contains 1 mM NADP, 5 mM G-6-P and 1 Unit/mL G-6-PDH), pre-incubated in a 37° C. water bath for 10 minutes and then placed on ice for use as a NADPH regeneration solution. 20 mg/mL liver microsomes solution and 200 mM phosphate buffer were mixed, and diluted with ultrapure water to give a liver microsomes solution containing 2.5 mg/mL liver microsomes (the final concentration of the reaction system is 0.5 mg/mL) and 50 mM phosphate buffer. […]
The percentage of the remaining compound after 30 minutes of incubation comparing with that in the 0-minute sample was calculated using the peak area ratio of the compound to the internal standard as an indicator, to evaluate the metabolic stability of the compound.

[5] = system: CIA (collagen induced arthritis) rats; test: Rat arthritis model induced by type II collagen (CIA); format: in vivo; conditions: compared with vehicle control group
Description: An appropriate amount of bovine type II collagen (CII, Chondrex (Redmond, Wash., USA), Cat #20021) was weighed and dissolved in 0.1 mole of acetic acid (SPGC Sinopharm Chemical Reagent Co., Ltd (Shanghai, P.R. China), Cat #: 10000218.), which was formulated into a solution with a concentration of 6 mg/mL, stirred at 4° C. overnight, and added with an equal volume of Freund's incomplete adjuvant (Sigma-Aldrich.(St. Louis, Mo., USA), Cat #: SLBW0366.), fully emulsified to prepare an emulsion with a CII concentration of 3 mg/mL.
Female Lewis rats were purchased from Beijing Vital River Laboratory Animal Technology Co., Ltd. (certificate number 20200928Aazz0619000579, initial body weight of 110-130 grams), and 6 rats were randomly selected as a normal group; and all of the remaining rats were immunized. In the first immunization on day 0, the rats except those in the normal group were anesthetized with isoflurane (Hebei Yipin Pharmaceutical Co., Ltd., Lot: C002170601.), and then disinfected with 75% alcohol, and 0.2 mL of emulsion was injected intradermally at the base of the tail thereof. A second challenge was carried out on day 7, and 0.2 mL of emulsion was intradermally injected using the same method. Once the animals developed symptoms on day 10, the incidence conditions thereof were closely monitored.
After grouping, the normal group was not administered, and the rats in the other groups were administered with the control vehicle, 0.25 mg/kg and 4 mg/kg of the reference GDC-0853, and each dose of compound 1 orally once a day until the end of the experiment.
The paw volume was measured on day 10 after immunization, and the left and right hind paw volumes (V) were measured every day after the paw volume increase was detected.
The arthrosis paw volumes of the left and right hind limbs of each animal were measured, and the average paw volume (APV) was calculated according to the following formula: Average paw volume APV=(Vleft+Vright)/2
The average arthrosis paw volume of each animal before administration was used as the baseline (or considered 100% inhibition of inflammation). […]
The area under the curve (AUC) of the average paw volume swelling is the area under the curve of the arthrosis score swelling calculated by the trapezoid method, and the calculation formula is: AUCAPS=1/2×(APSd1+APSd2)×(d2−d1)+1/2×(APSd2+APSd3)×(d3−d2)+ . . . +1/2×(APSdn+APSd(n-1))×(dn−dn-1). […]
ED50 is calculated by XLfit software according to the AUC inhibition ratio of the area under the curve of the average paw volume swelling. […]

| Compound | Inhibition ratio (%) on B cell activation [1] [%] | Inhibition ratio (%) on B cell activation ([1]; listed as compound 2) [%] | concentration at 16 h [2] [ng/mL] | IC50 [3] [nM] | RLM, percentage of the remaining compound after 30 minutes of incubation [4] [%] | effect on paw volume ([5]; 0.25 mg/kg oral QD) | effect on paw volume ([5]; 4 mg/kg oral QD) |
| --- | --- | --- | --- | --- | --- | --- | --- |
| C[C@@H]1CN(C2COC2)C[C@H](C)N1c1ccc(Nc2cc(-c3ccnc(-n4ccn5c6c(cc5c4=O)CC(C)(C)C6)c3CO)cn(C)c2=O)nc1 [Compound 2] | 43 | 43 | 6.6 ± 2.51 | 6 | – | – | – |
| C[C@H]1CN(C2COC2)C[C@H](C)N1c1ccc(Nc2cc(-c3ccnc(-n4ncn5c6c(cc5c4=O)CC(C)(C)C6)c3CO)cn(C)c2=O)nc1 [Compound 4, 2-(5-((5-((2S,6S)-2,6-dimethyl-4-(oxetan-3-yl)piperazin-1-yl)pyridin-2-yl)amino)-3′-(hydroxymethyl)-1-methyl-6-oxo-1,6-dihydro-[3,4′-bipyridin]-2′-yl)-7,7-dimethyl-7,8-dihydro-2H-cyclopenta[4,5]pyrrolo[1,2-d][1,2,4]triazin-1(6H)-one] | – | – | – | 3 | – | – | – |
| C[C@H]1CN(C2COC2)CCN1c1ccc(Nc2cc(-c3ccnc(N4CCn5c(cc6c5CC(C)(C)C6)C4=O)c3CO)cn(C)c2=O)nc1 [GDC-0853, fenebrutinib, reference compound] | – | – | 5.01 ± 2.26 | – | 81.0 | no improvement effect | significantly reduced |
